In patent publication US9186318B2, “Quinolyl-containing hydroxamic acid compound and preparation method thereof, and pharmaceutical composition containing this compound and use thereof” (Beijing Konruns Pharmaceutical Co., Ltd, priority 2011, dated 2015):

Columns and labels:
[1] = Body weight of mice in the anti-tumor experiment; assay type: in vivo, BALB/c-nu/nu mice; details: treatment group, 75 mg/kg oral once a day; after 14 days treatment
Method: GTL-16 gastric cancer cells were firstly cultured: GTL-16 cell lines were inoculated in RPM 1-1640 culture medium contain 10% FBS, 100 U/ml penicillin, 100 U/ml streptomycin and cultured under the condition of 37° C., 5% CO2 and 100% humidity in a carbon dioxide incubator. The logarithmic growth phase reached upon 24 h, and the cells completely covered the bottom of the culture flask at approximately 48 h after inoculation. Those with 80% of GTL-16 cells covering the bottom of the culture flask were digested and centrifuged at 1000 r/min for 5 min. The cells were diluted to 2×10^7/ml, and implanted subcutaneously in the right anterior axillary of the nude mice at 0.1 mL per mouse. Starting from 12 days after inoculation of tumor cells, the weight of the tumor-bearing nude mice and the size of tumors were measured, and the mice with tumor sizes ranging from 150-200 mm^3 were randomly divided into vehicle control group (Vehicle was 0.25% methanesulfonic acid) and treatment group in which the mice were treated with N1′-[3-fluoro-4-[[7-[[1-[2-(hydroxyamino)-2-oxoethyl]-4-piperidyl]methoxy]-6-methoxy-4-quinolyl]oxy]phenyl]-N1-(4-fluorophenyl)cyclopropane-1,1-dicarboxamide prepared in Example 1 with 6 mice each group. […] The tumor size of each animal was measured every 2 days. […]

[2] = test system: GTL-16 gastric cancer cells; assay: Anti-tumor experiment in xenograft nude mice; assay type: in vivo, BALB/c-nu/nu mice; details: GTL-16 xenograft nude mice, 75 mg/kg oral gavage once a day; for Tumor Growth Inhibition (TGI): 14 days; for average tumor volume: after 14 days, mean±SD, n=6
From the text: In this example, N1′-[3-fluoro-4-[[7-[[1-[2-(hydroxyamino)-2-oxoethyl]-4-piperidyl]methoxy]-6-methoxy-4-quinolyl]oxy]phenyl]-N1-(4-fluorophenyl)cyclopropane-1,1-dicarboxamide prepared in Example 1 was used to conduct anti-tumor experiment in xenograft nude mice animal models of human gastric cancer. The method and results of the experiment were as follows.
4 to 5-week-old SPF level female BALB/c-nu/nu mice with body weight of 12 g to 16 g were purchased from Beijing Vital River Laboratory Animal Technology Co., Ltd., with the production license number: SCXK (Beijing) 2006. GTL-16 gastric cancer cells were purchased from Shanghai Institutes for Biological Sciences Cell Resource Center. RPM 1-1640 cell culture media, fetal bovine serum (FBS) and trypsin digestion solution were purchased from Gibco. Various antibiotics were purchased from Sigma.
GTL-16 gastric cancer cells were firstly cultured: GTL-16 cell lines were inoculated in RPM 1-1640 culture medium contain 10% FBS, 100 U/ml penicillin, 100 U/ml streptomycin and cultured under the condition of 37° C., 5% CO2 and 100% humidity in a carbon dioxide incubator. The logarithmic growth phase reached upon 24 h, and the cells completely covered the bottom of the culture flask at approximately 48 h after inoculation. Those with 80% of GTL-16 cells covering the bottom of the culture flask were digested and centrifuged at 1000 r/min for 5 min. The cells were diluted to 2×10^7/ml, and implanted subcutaneously in the right anterior axillary of the nude mice at 0.1 mL per mouse. Starting from 12 days after inoculation of tumor cells, the weight of the tumor-bearing nude mice and the size of tumors were measured, and the mice with tumor sizes ranging from 150-200 mm^3 were randomly divided into vehicle control group (Vehicle was 0.25% methanesulfonic acid) and treatment group in which the mice were treated with N1′-[3-fluoro-4-[[7-[[1-[2-(hydroxyamino)-2-oxoethyl]-4-piperidyl]methoxy]-6-methoxy-4-quinolyl]oxy]phenyl]-N1-(4-fluorophenyl)cyclopropane-1,1-dicarboxamide prepared in Example 1 with 6 mice each group. Thereafter, the nude mice were weighed daily and the oral administrations were performed at 0.1 mL/10 g body-weight through oral gavage method (75 mg/kg, once a day). The tumor size of each animal was measured every 2 days. 14 days later, the tumor-bearing mice were sacrificed by cervical dislocation and the tumors were removed and weighed. The calculation method of Tumor Growth Inhibition (TGI) was as follows: the experimental data were represented by mean±SD; TGI=[(Vvehicle group−Vtreatment group)÷Vvehicle group]×100%, wherein Vvehicle group represented the mice tumor volume of the vehicle group and Vtreatment group represented the mice tumor volume of the treatment group. […]

SMILES: COc1cc2c(Oc3ccc(NC(=O)C4(C(=O)Nc5ccc(F)cc5)CC4)cc3F)ccnc2cc1OCC1CCN(CC(=O)NO)CC1 [Example 1, N1′-[3-fluoro-4-[[7-[[1-[2-(hydroxyamino)-2-oxoethyl]-4-piperidyl]methoxy]-6-methoxy-4-quinolyl]oxy]phenyl]-N1-(4-fluorophenyl)cyclopropane-1,1-dicarboxamide]
- weight variation of mice [1]: < 10%
- Tumor Growth Inhibition (TGI) [2]: 65%
- average tumor volume [2]: 630.9±354.6 mm^3

SMILES: COc1cc2c(Oc3ccc(NC(=O)C4(C(=O)Nc5ccc(F)cc5)CC4)cc3F)ccnc2cc1OCCCC(=O)NO [Example 9, N1′-[3-fluoro-4-[[7-[4-(hydroxyamino)-4-oxobutoxy]-6-methoxy-4-quinolyl]oxy]phenyl]-N1-(4-fluorophenyl)cyclopropane-1,1-dicarboxamide]
- Tumor Growth Inhibition (TGI) [2]: 87%
- average tumor volume [2]: 241.1±131.4 mm^3
